The record followed here is a melting point compilation (Tetko et al.).

The term melting point denotes the temperature of the solid-liquid transition.

`CN1CCNC(=O)CCSCCC1=O` registered a melting point of 185 to 187 °C. On to `COc1ccc([N+](=O)[O-])c2ccccc12`, for which the melting point was 81 to 85 °C. The result for `O=S(=O)(Cl)Cc1ccccc1F` reads 55 to 56 °C. With `CC(=O)NC(=O)COC(=O)c1ccccc1` the figure was 104 °C; with `O=Cc1ccc(-c2cncc(C(=O)O)c2)cc1`, 231 to 234 °C; with `ClCc1cc(-c2cccs2)on1`, 32 to 34 °C.

With `O=P(c1ccc(Cl)cc1)(c1ccc(Cl)cc1)c1ccc(Cl)cc1`, the melting point is 176 to 178 °C. The result for `CCN1C(=O)C(=Cc2coc3ccc(Cl)cc3c2=O)SC1=S` reads 231 to 233 °C; that for `O=C(O)C(F)(F)C(F)(F)C(F)(F)C(F)(F)C(=O)O`, 134 °C; that for `O=C(O)c1cccc(N=C=S)c1`, 165 °C.

For `O=C=Nc1ccc(F)cc1[N+](=O)[O-]`, the melting point lay within 50 to 55 °C. As for `CC(C)(C)NCCO`, the melting point was determined as 44 °C. `CCCCCCCCCCCCCCCCCCCO`: the melting point stood at 63.3 °C. With `Cc1ccccc1OCC(=O)O` the figure was 155 to 157 °C; with `CC(=O)N1CCc2cc([N+](=O)[O-])ccc21`, 177 °C; with `COc1cc(C(=O)NCCCCCC(=O)O)cc(OC)c1OC`, 121 °C. The result for `CC(=O)C(=NNc1ccccc1)c1cc(C(=NNc2ccccc2)C(C)=O)c([N+](=O)[O-])cc1[N+](=O)[O-]` reads 215 °C; that for `CC(C)OC(=O)C1(S(=O)(=O)c2ccc([N+](=O)[O-])cc2)CCC1`, 65.5 °C.

Regarding `CSC[C@H](N)C(=O)O`, the melting point was 240 °C. `CCOC(=O)c1nn(-c2ccc(C)cc2)c(C)c1C(=O)C1=NOC2C(=O)N(c3ccc(F)cc3)C(=O)C12` (stereo unspecified) displayed a melting point of 211 °C. `CCCCCCCCCCOC(=O)CCCCCCCCC` showed a melting point of 9.7 °C. The result for `CCOC(=O)NC(C)(C)Cc1ccc(Cl)cc1` reads 52.8 °C.

Take `O=C(NCCCCCCCCNC(=O)C(Cl)Cl)C(Cl)Cl`: the melting point was 118 to 120 °C. The compound `COc1cc(C(=O)OCCCl)cc(OC)c1OC` came in with a melting point of 69 °C. `Oc1ccc(-c2nnc3n2NC(c2ccccc2O)S3)cc1` (stereo unspecified) came in with a melting point of 241 °C.

As for `CC=C(C)C(=O)O`, the melting point was 64.5 °C. On to `CNCCCN1c2ccccc2CCc2ccccc21`, for which the melting point was 25 °C. The compound `Oc1ccccc1C(O)c1ccccc1` (stereo unspecified) yielded a melting point of 88 °C. With `CCOc1ccc([C@]2(C(=O)N3CCC[C@H](C)[C@@H]3C)CC2(Cl)Cl)cc1` the figure was 160 °C; with `O=Cc1ccc(-c2ccc(C(F)(F)F)cn2)cc1`, 91 to 93 °C; with `Nc1cc(Br)cnc1Cl`, 131 °C. With `BrC(Br)c1ccccc1C(Br)Br` the figure was 116 °C; with `CC(C)(C)OC(=O)N1CCC(Oc2ccccc2[N+](=O)[O-])CC1`, 91 to 93 °C. Compound `CCCCCCCCCI` registered a melting point of -20 °C. For `NC(=O)CCCNC(=C1C=C(F)C=CC1=O)c1ccc(Cl)cc1`, the melting point was 134 °C. With `OCc1ccccc1-c1ccco1` the figure was 72 °C; with `O=C(O)c1cccc(OC(F)(F)F)c1`, 89 °C. For `N#CC(=Cc1ccccc1Cl)c1nc2ccccc2s1`, the melting point stood at 139 °C. With `ClC(Cl)(Br)C(Cl)(Cl)Br` the figure was 220 to 222 °C.

With `CCCCCCCCCC(=O)OC(=O)CCCCCCCCC`, the melting point was 24.7 °C. The compound `ON=Cc1cccc2c(Br)cccc12` displayed a melting point of 134 °C. The result for `O=C(O)COc1ccc(I)cc1` reads 157 °C; that for `O=C(O)C=CC(=O)Nc1cccc2ccccc12`, 150 to 153 °C; that for `O=P1(NC2CCCCC2)Oc2ccccc2-c2ccccc2O1`, 160 °C. The result for `CN(C)C(=S)Cl` reads 42.5 °C.

Regarding `Cc1ccc(C(O)c2ccccc2O)cc1` (stereo unspecified), the melting point stood at 105 °C. With `O=C1CCc2cc(OCCCCc3nnnn3C3CCCCC3)ccc2N1`, the melting point was determined as 160 °C. Compound `O=C1OC(c2ccccc2)=NC1=Cc1ccccc1` came in with a melting point of 167 °C. `O=C(c1ccccc1)C1(O)CCCCC1` gave a melting point of 48 °C. In the case of `COc1ccc(C(=O)c2ccc(C)cc2)cc1OC`, the melting point was 109 °C. `CCC(C(=O)Nc1ccc(C)cc1)c1ccc(C)cc1` (stereo unspecified) yielded a melting point of 118 °C. For the compound `Cc1ccc(-c2ccc(C)c(C)c2)cc1C`, the melting point is 76 °C. `Cc1cc2cc3cc(C)[nH]c3cc2[nH]1` displayed a melting point of over 170 °C. Compound `O=C(Oc1ccccc1)c1ccc(O)cc1` gave a melting point of 176 to 178 °C. With `ClC1=C(Cl)C(Cl)(Cl)C(Cl)=C1Cl` the figure was -9 °C; with `FC(F)CC(F)(F)F`, -102 °C. `Nc1ccc2c(c1)OCCO2` came in with a melting point of 28 °C. On to `CC(NC(CCCNC(=N)N)C(=O)O)C(=O)O` (single isomer, unassigned; (+)), for which the melting point lay in the range of 283 to 284 °C. As to `CCCCCC(=O)OCC`, the melting point is -67 °C.

`CCOC(=O)C1(C)OC(=O)N(c2cc(Cl)cc(Cl)c2)C1=O` (stereo unspecified) displayed a melting point of 113 °C. The result for `COc1ccc(C(=O)c2ccccc2F)cc1[N+](=O)[O-]` reads 133 to 139 °C; that for `Cc1noc(C)c1C=O`, 35 to 38 °C. `On1nnc2ccc(Cl)cc21`: the melting point came to 197 °C. The result for `O=C1NC(=O)c2cccc3cccc1c23` reads 301 to 302 °C; that for `COc1c(CC(O)C(C)C)c(=O)n(C)c2c(OC)cccc12` (stereo unspecified), 86.5 °C; that for `N#CCc1ccc(Oc2ccc([N+](=O)[O-])cn2)cc1`, 118 to 119 °C. Regarding `NC(=NO)c1cccc(C(=O)O)c1`, the melting point lay in the range of 196 to 197 °C. `O=Cc1ccc(I)o1` had a melting point of 127 °C. For the compound `CCCC(C(N)=O)n1nc2ccccc2n1` (stereo unspecified), the melting point came out at 126 °C. `CC=Cc1ccc2c(c1)OCO2` came in with a melting point of 8.2 °C. The result for `O=Cc1sc(Br)c2c1OCCO2` reads 175 to 176 °C; that for `NC(c1cccc2ccccc12)C(N)c1cccc2ccccc12` (stereo unspecified), 174 to 177 °C. In turn, `S=c1oc2ccccc2n1CN1CCCCC1` gave a melting point of 255 °C. The compound `OC1OC2COC(c3ccccc3)OC2C(O)C1O` (stereo unspecified) displayed a melting point of 173 to 174 °C. The result for `CCOC(=O)c1c(C)csc1N` reads 81 °C; that for `Cc1cc(=O)oc2cc(O)c(O)cc12`, 275 °C. The result for `CCCCOC(=O)CCCC` reads -92.8 °C; that for `CNc1nnc(S)s1`, 190 to 193 °C; that for `CC(C)(C)c1ccc(OCC#N)cc1`, 69 °C. With `CSc1scnc1S(=O)(=O)c1ccc(C)cc1` the figure was 169 to 171 °C; with `O=C(O)c1ccc(-c2cccs2)cc1`, 240 to 244 °C. In the case of `Nc1ccc(F)nc1`, the melting point amounted to 91 °C. The compound `c1cc2cc3ccc4c(c3nc2c2c1NCOC2)COCN4` registered a melting point of 235 °C. In turn, `CCOC(=O)c1csc(-c2cccc(Cl)c2Cl)n1` showed a melting point of 108 to 110 °C. The result for `N#Cc1ccc(O)c(O)c1` reads 154 to 156 °C. The result for `CC(C)(C)c1cc(C(=S)NC2CCCCC2)cc(C(C)(C)C)c1O` reads 217 to 218 °C; that for `NC1CCCCCCCCCCC1`, 28 to 30 °C; that for `FC(F)(F)c1cccc(C(F)(F)F)n1`, 57 °C. The result for `O=C(CBr)Oc1ccc([N+](=O)[O-])cc1` reads 86 °C. `CC(C(=O)O)C(=O)O` gave a melting point of 129 to 136 °C.

The compound `C/C(=N\Nc1ccc([N+](=O)[O-])cc1)c1nc2c(ccc3ccccc32)nc1C` showed a melting point of 271 °C. With `OC(CBr)C(O)CBr` (racemic) the figure was 82 to 84 °C. `Cc1cc[nH]c(=O)c1` had a melting point of 130 °C. Compound `CNC1(c2ccccc2Cl)CCCCC1=O` (stereo unspecified) gave a melting point of 92.5 °C. As for `CCCCC(=O)OCC(=O)C1(O)Cc2c(O)c3c(c(O)c2C(OC2CC(NC(=O)C(F)(F)F)C(O)C(C)O2)C1)C(=O)c1c(OC)cccc1C3=O` (stereo unspecified), the melting point came out at 136 °C. `O=c1c2ccccc2cc2ccc3ccccc3n12` returned a melting point of 125 °C. The result for `Cn1cc(Br)c(CCl)n1` reads 76.5 to 78.5 °C. The result for `c1ccc(-c2ccccc2P(C2CCCCC2)C2CCCCC2)cc1` reads 102 to 106 °C; that for `CC1(C)CC(=O)C(=NNc2ccc(O)cc2)C(=O)C1`, 206 °C. The result for `CC(C)=CCCC=C(C)C` reads -74.4 °C; that for `CCCCc1ccc(/N=N/c2ccc(O)cc2)cc1`, 49 to 49.5 °C. Take `CCn1cc(C(=O)O)c(=O)c2cnc(N3CCNCC3)nc21`: the melting point amounted to 254 °C. With `C/C(=N\CCN)c1c(O)c2ccccc2n(-c2ccccc2)c1=O` the figure was over 300 °C.

For `O=S(=O)(Cl)c1ccc2ncsc2c1`, the melting point lay within 118 to 119 °C. `Cc1ccc2c(c1Cc1ccccc1)CCC1C2CCC2CCCCC21C` (stereo unspecified) displayed a melting point of 95 °C.

`O=C(O)c1c2c(nc3ccc(F)cc13)CCCCC2` had a melting point of 289 to 291 °C. The compound `O=C(O)C12CC3CC(CC(Br)(C3)C1)C2` registered a melting point of 147 to 148 °C. `CC12CCC(O)CC1CC1(OCCO1)C1C2CCC2(C)C1CCC21OCCO1` (stereo unspecified) showed a melting point of 99 to 103 °C.

`CCCCC(c1ccccc1)c1ccccc1` registered a melting point of -12 °C. The result for `CC(=O)OC1C(O)C2=C(C(=O)C(OC(C)=O)C3(CC3C)C2=O)C2(C)CCC(=O)C(C)(C)C12` (stereo unspecified) reads 201 °C. With `C=CC(C)(O)CCC=C(C)C` (stereo unspecified) the figure was under 25 °C.
